These results are taken from patent US6680282B2 (priority 1997, dated 2004).

SMILES strings stand for the structures.

One experiment deals with Sphaerotheca fuliginea. In words: Test for control effect against powdery mildew of Cucurbitaceae (spray on cucumber seedlings). The format is in vivo. Conditions: 200 ppm spray, cucumber first foliage leaf, 10 days after inoculation. The source says:
Test for Control Effect Against Powdery Mildew of Cucurbitaceae
A spray liquid comprising a test compound whose concentration was adjusted to be 200 ppm by dilution with water was sprayed to a cucumber grown in a vinyl pot of 3 cm in diameter when its first foliage leaf was developed. The air-dried cucumber seedling was inoculated with a conidium suspension of Sphaerotheca fuliginea. Thereafter, the cucumber seedling was transferred in an air-conditioned greenhouse. 10 Days after the inoculation, the disease severity was observed. The protective value was calculated by comparing the disease severity in a treated area with that in an untreated area. Then, control effect was ranked according to the following criterion.
B; protective value 50 to 79%

The subject of the next experiment is Cochlioborus miyabeanus. Format: cell-based. Conditions: 100 ppm in potato dextrose agar, 28 or 22° C., 48 hours.
The subject of experiment [1] is Pyricularia oryzae. The format is cell-based. Conditions: 100 ppm in potato dextrose agar, 28 or 22° C., 48 hours.
Experiment [2] has as its system Pyricularia oryzae. Briefly: whole plant or invertebrate. Format: in vivo. Conditions: 100 ppm spray, rice seedling (Jikkoku) 4-leaf stage, lesion number on fourth leaf 6 days after inoculation.
The subject of a further experiment is Sclerotinia minor. The format is cell-based. Conditions: 100 ppm in potato dextrose agar, 28 or 22° C., 48 hours. Here is the method: (§1) Test for Antifungal Activity
(§2) A test compound dissolved in acetone was mixed in a potato dextrose agar medium (manufactured by Nissui Seiyaku K. K.) so that the final concentration of the test compound was 100 ppm and then poured in a Petri dish. To this Perti dish after the agar was completely solidified, a cylindrical section prepared by punching a mycelial colony of each of plant pathogenic fungi cultured in another Petri dish by means of a cork borer was inoculated and cultured at 28 or 22° C. 48 Hours after the inoculation, the diameter of the mycelial colony was determined. Control percentages were calculated by comparing the diameter of the mycelial colony in a treated area with that in an untreated area. And, antifungal effect was ranked according to the following criterion.
(§3) A; control percentage ≧80%
(§4) B; control percentage 50 to 79%
(§5) C; control percentage <50%

Another experiment relates to Glomerella cingalata. The format is cell-based. The note with it: 100 ppm in potato dextrose agar, 28 or 22° C., 48 hours. As for the experimental part:
as §1, §2, §3, §4, §5

In experiment [3] the test system is Fusarium oxysporum f. sp. lycopersici. The format is cell-based. The note with it: 100 ppm in potato dextrose agar, 28 or 22° C., 48 hours. As for the experimental part:
as §1, §2, §3, §4, §5

The next experiment concerns Rhizoctonia solani. Format: cell-based. The note with it: 100 ppm in potato dextrose agar, 28 or 22° C., 48 hours. As for the experimental part:
as §1, §2, §3, §4, §5

In the next experiment the test system is Gibberella fujikuroi. The format is cell-based. The note with it: 100 ppm in potato dextrose agar, 28 or 22° C., 48 hours. Here is the method:
as §1, §2, §3, §4, §5

The test system of another experiment is Verticillium aibo-atrum. The format is cell-based. Conditions: 100 ppm in potato dextrose agar, 28 or 22° C., 48 hours. As for the experimental part: as §1, §2, §3, §4, §5
The next experiment concerns Botrytis cinerea. Format: cell-based. Conditions: 100 ppm in potato dextrose agar, 28 or 22° C., 48 hours. As for the experimental part:
as §1, §2, §3, §4, §5

For experiment [4], the system named is Alternaria alternata Japanese pear pathotype. Format: cell-based. Conditions: 100 ppm in potato dextrose agar, 28 or 22° C., 48 hours. Here is the method:
as §1, §2, §3, §4, §5

Experiment [5] relates to Colletotrichum atramentarium. The format is cell-based. The note with it: 100 ppm in potato dextrose agar, 28 or 22° C., 48 hours. Here is the method: as §1, §2, §3, §4, §5

On to `CCCCc1ccc2nc(C)c(C)c(OC(C)=O)c2c1` [Compound No. 29], for which, in the experiment with Sphaerotheca fuliginea, the “rank (control effect, protective value from disease severity)” value is “B (protective value 50 to 79%)”. Besides, the “rank (antifungal effect, control percentage of mycelial colony diameter)” value in the experiment on Cochlioborus miyabeanus was “B (control percentage 50 to 79%)”; with Pyricularia oryzae [1], “A (control percentage ≧80%)”; in the experiment on Sclerotinia minor it was “C (control percentage <50%)”; with Glomerella cingalata it was “A (control percentage ≧80%)”; in [3], “B (control percentage 50 to 79%)”; with Rhizoctonia solani it was “C (control percentage <50%)”. The “rank (antifungal effect, control percentage of mycelial colony diameter)” value with Gibberella fujikuroi was “B (control percentage 50 to 79%)”; in the experiment with Verticillium aibo-atrum, “A (control percentage ≧80%)”; with Botrytis cinerea, “B (control percentage 50 to 79%)”; in experiment [4] it was “C (control percentage <50%)”; in experiment [5], “B (control percentage 50 to 79%)”. In addition, the “rank (control effect, protective value from lesion number)” value in the experiment on Pyricularia oryzae [2] is recorded as “A (protective value ≧80%)”.
For the compound `CCCCc1ccc2nc(C)c(C)c(OC(=O)C3CC3)c2c1` [compound 31], the “rank (antifungal effect, control percentage of mycelial colony diameter)” value in the experiment on Cochlioborus miyabeanus is “A (control percentage ≧80%)”; with Pyricularia oryzae [1], “A (control percentage ≧80%)”; with Sclerotinia minor, “B (control percentage 50 to 79%)”; in the experiment on Glomerella cingalata, “A (control percentage ≧80%)”; in [3], “A (control percentage ≧80%)”; in the experiment on Rhizoctonia solani it was “C (control percentage <50%)”. For the same compound, the “rank (antifungal effect, control percentage of mycelial colony diameter)” value (in the experiment with Gibberella fujikuroi; in the experiment with Verticillium aibo-atrum; in the experiment on Botrytis cinerea; in experiment [4]; in experiment [5]) was “A (control percentage ≧80%)” throughout. Besides, the “rank (control effect, protective value from lesion number)” value in the experiment on Pyricularia oryzae [2] is “A (protective value ≧80%)”.
